# Test results published in patent publication US20220241409A1, “WATER SOLUBLE ADJUVANT AND COMPOSITION CONTAINING SAME” (Sumitomo Dainippon Pharma Co., Ltd., priority 2019, published 2022).
# What was measured:
# [1] = test system: human peripheral blood mononuclear cell; experiment: Activation of immune cells, human PBMC cytokine/chemokine production (Test 3); format: cell-based; conditions: 200 nmol/L, one day, PBMCs from two donors, compared with only DMSO
# Experimental: Cryopreserved peripheral blood mononuclear cells (PBMCs) of adult (C.T.L) were reconstituted, suspended in a culture medium which comprises AIM V medium (Life Technologies) supplemented with 10% human serum (biowest) and 1% MEM Non-Essential Amino Acids Solution (100×) (Life Technologies), and seeded on a U-bottom 96 well plate at 4×10^5 cells/well. The compound of the present invention was added in the presence of 0.1% (v/v) DMSO to the wells at a final concentration of 200 nmol/L. The plate was incubated at 37° C. under an atmosphere of 5% CO2. One day after the incubation, the culture supernatant was collected. The concentration of cytokine and chemokine (GM-CSF, IFNα2, IFNγ, IL-12p40, IL-1p, IL-6, IP-10, and TNFα) which were included in each culture supernatant was measured with Milliplex Human Cytokine/Chemokine Magnetic Bead Panel kit (Millipore) and Luminex system (Luminex) in accordance with the manufacturer's protocol.
# The results of the test wherein PBMCs derived from two different donors were used were shown in FIG. 1-A to FIG. 1-I. The white bar indicates the mean number of the concentration of cytokine and chemokine in the culture supernatant from three wells to which only DMSO was added, and the black bar indicates the mean number of the concentration of cytokine and chemokine in the culture supernatant from three wells to which the present compound was added. […]
# [2] = test system: HLA-A*02:01 transgenic mouse; experiment: In vivo adjuvant activity, CTL induction with vaccine b (Montanide ISA 51 VG), IFNγ ELISPOT (Test 8); conditions: compound (32.5 ng or 325 ng per body) added to vaccine b versus no compound; twice, one week interval
# Experimental: The in vivo adjuvant activity of the compounds prepared in Examples 2 and 3 was evaluated in the following procedure. To a cocktail vaccine comprising Compound of formula 4 prepared in Reference example 9 and Peptide SEQ ID No. 3 prepared in Reference example 3 with Montanide ISA51 VG (hereinafter, referred to as “vaccine b”) was added the compound prepared in Example 2 or 3 to prepare each vaccine. The vaccine was administered to a HLA-A*02:01 transgenic mouse, and the adjuvant activity of each vaccine was evaluated by the method of testing antigen-specific CTL induction.
# Specifically, Compound of formula 4 and Peptide SEQ ID No. 3 were dissolved in DMSO, and then diluted with water for injection to concentrations of Compound of formula 4 of 3 mg/mL and Peptide SEQ ID No. 3 of 2.25 mg/mL. The diluted peptide solution was mixed and emulsified with an equal volume of Montanide ISA 51 VG (Seppic) to prepare vaccine b. Cocktail vaccine b was injected to mice intradermally at the tail base area in an amount for administering 300 μg of Compound of formula 4 per body and 225 μg of Peptide SEQ ID No. 3 per body. Or, in the step of preparing vaccine b, the compound prepared in Example 3 was added to the diluted peptide solution to prepare a vaccine, and the prepared vaccine was injected to mice intradermally at the tail base area in an amount for administering 300 μg of Compound of formula 4 per body, 225 μg of Peptide SEQ ID No. 3 per body, and 32.5 ng or 325 ng of the compound prepared in Example 3 per body. Or, in the step of preparing vaccine b, the compound prepared in Example 2 was added to the diluted peptide solution to prepare a vaccine, and the prepared vaccine was injected to mice intradermally at the tail base area in an amount for administering 300 μg of Compound of formula 4 per body, 225 μg of Peptide SEQ ID No. 3 per body, and 32.5 ng or 325 ng of the compound prepared in Example 2 per body. The administrations were done twice, which had one week interval. One week after the final administration, the mice were sacrificed with CO2 gas. Splenocytes were harvested from spleens removed from the mice. Like Test 6, Peptide (SEQ ID No. 1 or SEQ ID No. 5) was added to the splenocyte-containing ELISPOT plate, and the plate was incubated overnight at 37° C. under an atmosphere of 5% CO2 to re-stimulate the peptide in vitro. Then, after removal of the supernatant from the wells, stained spots on the ELISPOT plate were counted.
Compound,"concentration of cytokine and chemokine (GM-CSF, IFNα2, IFNγ, IL-12p40, IL-1β, IL-6, IP-10, TNFα) in culture supernatant [1]",CTL counts responsive to Peptide of SEQ ID No. 1 [2],CTL counts responsive to Peptide of SEQ ID No. 5 [2]
"CCCCOc1nc(N)c2[nH]c(=O)n(Cc3ccc(CN(C)CCOCCOCCOCCOCCO)nc3)c2n1 [Example 2, 6-amino-2-butoxy-9-{[6-(16-hydroxy-2-methyl-5,8,11,14-tetraoxa-2-azahexadecan-1-yl)pyridin-3-yl]methyl}-7,9-dihydro-8H-purin-8-one-trifluoroacetate]",higher,more,more
"CCCCOc1nc(N)c2[nH]c(=O)n(Cc3ccc(CN(C)CCOCCOCCOCCOCCO)cc3)c2n1 [Example 3, 6-amino-2-butoxy-9-{[4-(16-hydroxy-2-methyl-5,8,11,14-tetraoxa-2-azahexadecan-1-yl)phenyl]methyl}-7,9-dihydro-8H-purin-8-one]",higher,more,more
